Test results taken from patent US20250195521A1 (Revolution Medicines, Inc., priority 2020, published 2025).

What was measured:
[1] = tested on: NCI-H358 cells (K-Ras G12C); assay: CellTiter-Glo cell viability, NCI-H358; assay type: cell-based, human; details: Homo sapiens, NCI-H358, 120 h, K-Ras G12C, 5-day treatment; read-out: H358 Cell Viability IC50
How it was run: (§1)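 Compounds dispensed directly onto seeded cells; on day 5 plates equilibrated ~30 min to room temperature and luminescence read. Signal normalized to DMSO average (%) and fitted by four-parameter logistic.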

[2] = tested on: Capan-1 cells (K-Ras G12V); assay: CellTiter-Glo cell viability, Capan-1; assay type: cell-based, human; details: Homo sapiens, CAPAN-1, 120 h, K-Ras G12V, 5-day treatment; read-out: Capan-1 Cell Viability IC50
How it was run: as §1

KRAS G12C = KRAS G12C (Homo sapiens (Human), UniProt P01116+P62937, G12C); assay: Ras-Raf disruption/FRET/MOA assay (BRAF RBD, Cyclophilin A); assay type: biochemical; details: read-out: KRAS G12C FRET IC50
How it was run: (§2)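 TR-FRET readout: anti-His Eu-W1024 (10 nM) and anti-GST allophycocyanin (50 nM) added after 3 h, 25° C compound incubation, then 1.5 h more. Decrease in FRET ratio versus DMSO wells marks Ras:RAF disruption; IC50 reported.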

KRAS G12D = KRAS G12D (Homo sapiens (Human), UniProt P01116+P62937, G12D); assay: as above; assay type: biochemical; details: read-out: KRAS G12D FRET IC50
How it was run: as §2

KRAS G12S = KRAS G12S (Homo sapiens (Human), UniProt P01116+P62937, G12S); assay: as above; assay type: biochemical; details: read-out: KRAS G12S FRET IC50
How it was run: as §2

KRAS G12V = KRAS G12V (Homo sapiens (Human), UniProt P01116+P62937, G12V); assay: as above; assay type: biochemical; details: read-out: KRAS G12V FRET IC50
How it was run: as §2

KRAS G13C = KRAS G13C (Homo sapiens (Human), UniProt P01116+P62937, G13C); assay: as above; assay type: biochemical; details: read-out: KRAS G13C FRET IC50
How it was run: as §2

KRAS G13D = KRAS G13D (Homo sapiens (Human), UniProt P01116+P62937, G13D); assay: as above; assay type: biochemical; details: read-out: KRAS G13D FRET data IC50
How it was run: as §2

KRAS Q61H = KRAS Q61H (Homo sapiens (Human), UniProt P01116+P62937, Q61H); assay: as above; assay type: biochemical
How it was run: as §2

KRAS WT = KRAS WT (Homo sapiens (Human), UniProt P01116+P62937); assay: as above; assay type: biochemical; details: read-out: KRAS WT FRET data IC50
How it was run: as §2

NRAS G12C = NRAS G12C (Homo sapiens (Human), UniProt P01111+P62937, G12C); assay: as above; assay type: biochemical; details: read-out: NRAS G12C FRET data IC50
How it was run: (§3)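 First, 25 μM Cyclophilin A, 12.5 nM His6-Ras-GMPPNP and 50 nM GST-BRAF RBD are mixed with diluted compound at pH 7.3. Next, 3 h at 25° C. Then 10 nM anti-His Eu-W1024 plus 50 nM anti-GST allophycocyanin for 1.5 h before TR-FRET reading.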

NRAS Q61R = NRAS Q61R (Homo sapiens (Human), UniProt P01111+P62937, Q61R); assay: as above; assay type: biochemical
How it was run: as §3

NRAS WT = NRAS WT (Homo sapiens (Human), UniProt P01111+P62937); assay: as above; assay type: biochemical
How it was run: as §3

[3] = tested on: K-Ras G12C (NCI-H358 cells); assay: Potency assay: pERK in NCI-H358 cells; assay type: cell-based, human; details: Homo sapiens; NCI-H358 cells, 4 hours; read-out: pERK EC50 (H358 KRAS G12C)
How it was run: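 Cells plated the day before were exposed for 4 h at 37° C, 5% CO2 to a 10-point, 3-fold DMSO dilution series (10 mM top stock), in duplicate. Phospho-ERK was read by AlphaLISA SureFire Ultra or by In-Cell Western with DRAQ5 DNA stain, and IC50 came from a 4-parameter sigmoidal fit.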

Chain of KRAS WT (P01116 other isoform, or with tags, fused parts or gaps): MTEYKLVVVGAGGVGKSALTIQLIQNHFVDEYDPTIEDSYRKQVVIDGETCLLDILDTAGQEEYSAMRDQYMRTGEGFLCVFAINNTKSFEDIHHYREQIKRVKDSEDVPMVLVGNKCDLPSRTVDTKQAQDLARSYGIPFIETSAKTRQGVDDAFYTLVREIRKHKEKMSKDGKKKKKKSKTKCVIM
Chain of KRAS WT (P62937 whole entry): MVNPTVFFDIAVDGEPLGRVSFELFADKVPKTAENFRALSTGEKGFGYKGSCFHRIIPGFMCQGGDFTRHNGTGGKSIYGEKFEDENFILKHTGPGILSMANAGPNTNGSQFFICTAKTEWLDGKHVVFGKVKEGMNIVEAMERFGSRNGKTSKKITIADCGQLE
Chain of NRAS Q61R (P01111 whole entry Q61R): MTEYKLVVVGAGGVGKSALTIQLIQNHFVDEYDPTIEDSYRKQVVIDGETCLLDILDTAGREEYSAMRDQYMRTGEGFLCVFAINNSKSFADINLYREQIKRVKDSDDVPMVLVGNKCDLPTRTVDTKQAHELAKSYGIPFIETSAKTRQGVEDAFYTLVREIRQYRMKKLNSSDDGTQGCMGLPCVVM
Chain of NRAS Q61R (P62937 whole entry): as the sequence (P62937 whole entry) above
Chain of KRAS Q61H (P01116 other isoform, or with tags, fused parts or gaps Q61H): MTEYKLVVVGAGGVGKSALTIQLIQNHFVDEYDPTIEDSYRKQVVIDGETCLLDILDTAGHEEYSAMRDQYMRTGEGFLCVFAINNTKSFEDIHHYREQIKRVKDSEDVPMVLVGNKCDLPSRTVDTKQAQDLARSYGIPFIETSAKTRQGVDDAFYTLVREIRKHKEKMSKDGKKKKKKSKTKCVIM
Chain of KRAS Q61H (P62937 whole entry): as the sequence (P62937 whole entry) above
Chain of KRAS G12V (P01116 other isoform, or with tags, fused parts or gaps G12V): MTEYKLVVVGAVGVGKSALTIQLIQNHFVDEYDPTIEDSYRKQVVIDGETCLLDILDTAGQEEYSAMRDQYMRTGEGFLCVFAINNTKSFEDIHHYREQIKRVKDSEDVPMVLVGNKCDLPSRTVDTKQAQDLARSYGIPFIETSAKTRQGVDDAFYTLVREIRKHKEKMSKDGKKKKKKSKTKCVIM
Chain of KRAS G12V (P62937 whole entry): as the sequence (P62937 whole entry) above
Chain of KRAS G12D (P01116 other isoform, or with tags, fused parts or gaps G12D): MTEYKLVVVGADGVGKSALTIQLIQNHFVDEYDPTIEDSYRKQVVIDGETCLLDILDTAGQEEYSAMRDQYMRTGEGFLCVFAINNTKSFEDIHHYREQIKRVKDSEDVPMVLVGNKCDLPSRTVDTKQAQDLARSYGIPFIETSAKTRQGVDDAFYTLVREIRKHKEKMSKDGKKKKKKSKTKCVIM
Chain of KRAS G12D (P62937 whole entry): as the sequence (P62937 whole entry) above
Chain of KRAS G12C (P01116-2 other isoform, or with tags, fused parts or gaps G12C): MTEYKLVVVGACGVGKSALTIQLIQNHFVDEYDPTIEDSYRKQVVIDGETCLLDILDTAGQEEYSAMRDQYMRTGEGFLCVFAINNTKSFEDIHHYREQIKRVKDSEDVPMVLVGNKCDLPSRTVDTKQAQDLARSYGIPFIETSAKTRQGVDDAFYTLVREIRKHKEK
Chain of KRAS G12C (P62937 whole entry): as the sequence (P62937 whole entry) above
Chain of KRAS G13C (P01116 other isoform, or with tags, fused parts or gaps G13C): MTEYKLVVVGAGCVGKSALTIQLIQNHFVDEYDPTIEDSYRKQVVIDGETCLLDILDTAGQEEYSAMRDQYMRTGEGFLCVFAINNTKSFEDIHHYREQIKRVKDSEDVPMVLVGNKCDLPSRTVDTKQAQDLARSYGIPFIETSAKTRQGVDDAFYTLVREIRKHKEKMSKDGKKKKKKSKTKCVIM
Chain of KRAS G13C (P62937 whole entry): as the sequence (P62937 whole entry) above
Chain of KRAS G13D (P01116 other isoform, or with tags, fused parts or gaps G13D): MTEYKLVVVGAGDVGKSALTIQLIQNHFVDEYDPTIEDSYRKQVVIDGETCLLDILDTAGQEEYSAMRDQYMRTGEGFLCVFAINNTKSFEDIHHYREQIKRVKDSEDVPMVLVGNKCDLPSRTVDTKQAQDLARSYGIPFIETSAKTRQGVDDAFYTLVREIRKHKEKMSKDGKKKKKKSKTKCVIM
Chain of KRAS G13D (P62937 whole entry): as the sequence (P62937 whole entry) above
Chain of NRAS WT (P01111 whole entry): as the sequence (P01111 whole entry Q61R) above, with R61Q counted along it
Chain of NRAS WT (P62937 whole entry): as the sequence (P62937 whole entry) above
Chain of NRAS G12C (P01111 whole entry G12C): as the sequence (P01111 whole entry Q61R) above, with G12C, R61Q counted along it
Chain of NRAS G12C (P62937 whole entry): as the sequence (P62937 whole entry) above
Chain of KRAS G12S (P01116 other isoform, or with tags, fused parts or gaps G12S): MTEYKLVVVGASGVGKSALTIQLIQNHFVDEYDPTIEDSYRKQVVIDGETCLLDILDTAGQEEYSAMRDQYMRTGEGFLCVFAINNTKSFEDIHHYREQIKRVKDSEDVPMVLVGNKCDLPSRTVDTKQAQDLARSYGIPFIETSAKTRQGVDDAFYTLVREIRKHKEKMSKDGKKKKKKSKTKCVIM
Chain of KRAS G12S (P62937 whole entry): as the sequence (P62937 whole entry) above

IC50 [1] | IC50 (KRAS G12C) | IC50 (KRAS G12D) | IC50 (KRAS G12S) | IC50 (KRAS G12V) | IC50 (KRAS G13C) | IC50 (KRAS G13D) | IC50 (KRAS Q61H) | IC50 (KRAS WT) | IC50 (NRAS G12C) | IC50 (NRAS Q61R) | IC50 (NRAS WT) | EC50 [3] | Compound | IC50 [2]
10 to 100 nM | 10 to 100 nM | 100 to 1000 nM | 100 to 1000 nM | 100 to 1000 nM | 100 to 1000 nM | 100 to 1000 nM | 10 to 100 nM | 100 to 1000 nM | 10 to 100 nM | 100 to 1000 nM | 100 to 1000 nM | < 5000 nM | CCn1c(-c2cccnc2[C@H](C)OC)c2c3cc(ccc31)-c1csc(n1)C[C@H](NC(=O)[C@H](C(C)C)N(C)C(=O)N1CC(S(C)(=O)=O)C1)C(=O)N1CCC[C@H](N1)C(=O)OCC(C)(C)C2 [Compound A383] | 10 to 100 nM
10 to 100 nM | 10 to 100 nM | 100 to 1000 nM | 100 to 1000 nM | 100 to 1000 nM | 100 to 1000 nM | 100 to 1000 nM | 10 to 100 nM | 100 to 1000 nM | 10 to 100 nM | 100 to 1000 nM | 100 to 1000 nM | – | CCn1c(-c2cccnc2[C@H](C)OC)c2c3cc(ccc31)-c1csc(n1)C[C@H](NC(=O)[C@H](C(C)C)N(C)C(=O)N1CC[C@H](O)C1)C(=O)N1CCC[C@H](N1)C(=O)OCC(C)(C)C2 [Compound A401] | 10 to 100 nM
1000 to 10000 nM | 10 to 100 nM | 100 to 1000 nM | 10 to 100 nM | 10 to 100 nM | 10 to 100 nM | 10 to 100 nM | 10 to 100 nM | 10 to 100 nM | 10 to 100 nM | 100 to 1000 nM | 10 to 100 nM | – | CCn1c(-c2cccnc2[C@H](C)OC)c2c3cc(ccc31)-c1cc(O)cc(c1)C[C@H](NC(=O)[C@H](C(C)C)N(C)C(=O)[C@H]1CCC(=O)O1)C(=O)N1CCC[C@H](N1)C(=O)OCC(C)(C)C2 [Compound A405] | 1000 to 10000 nM
10 to 100 nM | 100 to 1000 nM | 1000 to 10000 nM | 100 to 1000 nM | 100 to 1000 nM | 100 to 1000 nM | 100 to 1000 nM | 100 to 1000 nM | 100 to 1000 nM | 100 to 1000 nM | 100 to 1000 nM | 100 to 1000 nM | < 5000 nM | CCn1c(-c2cccnc2[C@H](C)OC)c2c3cc(ccc31)-c1csc(n1)C[C@H](NC(=O)[C@H](C(C)C)N(C)C(=O)N1C[C@@H]3OCCN(C)[C@H]3C1)C(=O)N1CCC[C@H](N1)C(=O)OCC(C)(C)C2 [Compound A445] | 10 to 100 nM
10 to 100 nM | 100 to 1000 nM | 100 to 1000 nM | 100 to 1000 nM | 100 to 1000 nM | 100 to 1000 nM | 100 to 1000 nM | 10 to 100 nM | 100 to 1000 nM | 100 to 1000 nM | 100 to 1000 nM | 100 to 1000 nM | – | CCn1c(-c2cccnc2[C@H](C)OC)c2c3cc(ccc31)-c1csc(n1)C[C@H](NC(=O)[C@H](C(C)C)N(C)C(=O)N1CC3(CC(N(C)C(C)C)C3)C1)C(=O)N1CCC[C@H](N1)C(=O)OCC(C)(C)C2 [Compound A485] | 10 to 100 nM
10 to 100 nM | 10 to 100 nM | 100 to 1000 nM | 10 to 100 nM | 100 to 1000 nM | 100 to 1000 nM | 100 to 1000 nM | 10 to 100 nM | 10 to 100 nM | 10 to 100 nM | 100 to 1000 nM | 10 to 100 nM | < 5000 nM | CCn1c(-c2cccnc2[C@H](C)OC)c2c3cc(ccc31)-c1csc(n1)C[C@H](NC(=O)[C@H](C(C)C)N(C)C(=O)N1CCCC[C@H](N(C)C)C1)C(=O)N1CCC[C@H](N1)C(=O)OCC(C)(C)C2 [Compound A491] | 10 to 100 nM
